Test [1] has as its target T1, KRAS G12C::SOS1 (Homo sapiens, UniProt Q07889).
T1 construct: purchased CISBIO 64KRASG12PEH
T1 sequence (Q07889 1-1333): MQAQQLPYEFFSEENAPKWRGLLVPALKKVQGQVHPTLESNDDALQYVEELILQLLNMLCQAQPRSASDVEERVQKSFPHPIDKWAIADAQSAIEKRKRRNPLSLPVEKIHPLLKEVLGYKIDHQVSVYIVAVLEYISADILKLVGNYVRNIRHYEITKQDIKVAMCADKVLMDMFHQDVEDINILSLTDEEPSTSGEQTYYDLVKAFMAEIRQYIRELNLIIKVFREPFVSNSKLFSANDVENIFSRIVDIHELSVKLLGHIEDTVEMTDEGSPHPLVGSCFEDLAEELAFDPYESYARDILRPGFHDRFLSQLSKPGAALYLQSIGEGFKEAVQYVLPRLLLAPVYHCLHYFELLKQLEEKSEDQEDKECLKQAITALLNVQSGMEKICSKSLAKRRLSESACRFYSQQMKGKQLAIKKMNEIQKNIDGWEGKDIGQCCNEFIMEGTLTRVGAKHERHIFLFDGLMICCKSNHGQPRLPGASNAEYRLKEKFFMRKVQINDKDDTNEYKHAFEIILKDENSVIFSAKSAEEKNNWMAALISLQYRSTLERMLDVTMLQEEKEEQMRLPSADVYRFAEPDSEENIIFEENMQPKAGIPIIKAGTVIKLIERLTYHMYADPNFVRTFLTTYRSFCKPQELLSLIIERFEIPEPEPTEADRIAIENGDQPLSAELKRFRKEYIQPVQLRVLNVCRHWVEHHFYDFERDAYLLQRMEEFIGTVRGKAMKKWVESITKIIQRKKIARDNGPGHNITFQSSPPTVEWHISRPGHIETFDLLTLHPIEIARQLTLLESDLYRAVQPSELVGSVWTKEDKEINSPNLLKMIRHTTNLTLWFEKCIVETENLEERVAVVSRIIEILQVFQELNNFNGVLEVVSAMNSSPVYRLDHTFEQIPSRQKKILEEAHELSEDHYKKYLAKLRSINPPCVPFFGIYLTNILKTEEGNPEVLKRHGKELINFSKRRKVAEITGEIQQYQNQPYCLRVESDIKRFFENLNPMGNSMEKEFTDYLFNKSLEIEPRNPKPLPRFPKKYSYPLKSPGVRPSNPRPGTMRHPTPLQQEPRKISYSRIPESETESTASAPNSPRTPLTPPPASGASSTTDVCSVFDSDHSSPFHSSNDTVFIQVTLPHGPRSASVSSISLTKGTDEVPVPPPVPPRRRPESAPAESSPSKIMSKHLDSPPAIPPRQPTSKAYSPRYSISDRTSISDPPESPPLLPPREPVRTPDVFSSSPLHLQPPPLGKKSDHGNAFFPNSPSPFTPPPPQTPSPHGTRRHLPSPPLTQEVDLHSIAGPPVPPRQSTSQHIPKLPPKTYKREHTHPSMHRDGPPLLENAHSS
The test is described as follows: KRAS G12C::SOS1 protein-protein interaction (PPI) inhibition assay (HTRF). The format is binding. Put shortly:
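Compounds, at eight 3-fold dilutions from 3 µM, were mixed with GTP-loaded Tag1-KRAS G12C, Tag2-SOS1 and a terbium-cryptate donor plus XL665 acceptor antibody pair. After 2 h at room temperature, time-resolved FRET reported the KRAS–SOS1 interaction.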
In general terms: Time-resolved FRET reads energy transfer from a long-lived donor to a nearby acceptor.

Test [2] concerns lung cancer cell line NCI-H358 having the KRAS G12C variant. Nature of the test: Cancer cell growth inhibition, 3D spheroids (CellTiter-Glo 3D). It counts as cell-based. To be noted: Homo sapiens, NCI-H358, 120 h, read-out: H358 cell viability. The procedure: Thereafter, the plate with the cells cultured was adapted to room temperature for 10 minutes, and then 50 µL of CellTiter-Glo® 3D Cell Viability Assay (PROMEGA, G9683) solution was dispensed, and reacted on a horizontal stirrer at a speed of 300 RPM for 30 minutes to induce the cell lysis. […] Thereafter, based on the measured values, the degree of cell growth in the well treated with each compound was calculated when the final cell density value of the well not treated with the test substance was set to 100%.
(In ATP-based viability assays light output follows the ATP content of the culture.)

Test [3] addresses T2, SOS1 (Homo sapiens, UniProt Q07889).
T2 construct: HIS-SOS1cat (160 nM; Cytoskeleton, US); His (N); purchased Cytoskeleton
T2 sequence (Q07889 564-1049 limits assumed): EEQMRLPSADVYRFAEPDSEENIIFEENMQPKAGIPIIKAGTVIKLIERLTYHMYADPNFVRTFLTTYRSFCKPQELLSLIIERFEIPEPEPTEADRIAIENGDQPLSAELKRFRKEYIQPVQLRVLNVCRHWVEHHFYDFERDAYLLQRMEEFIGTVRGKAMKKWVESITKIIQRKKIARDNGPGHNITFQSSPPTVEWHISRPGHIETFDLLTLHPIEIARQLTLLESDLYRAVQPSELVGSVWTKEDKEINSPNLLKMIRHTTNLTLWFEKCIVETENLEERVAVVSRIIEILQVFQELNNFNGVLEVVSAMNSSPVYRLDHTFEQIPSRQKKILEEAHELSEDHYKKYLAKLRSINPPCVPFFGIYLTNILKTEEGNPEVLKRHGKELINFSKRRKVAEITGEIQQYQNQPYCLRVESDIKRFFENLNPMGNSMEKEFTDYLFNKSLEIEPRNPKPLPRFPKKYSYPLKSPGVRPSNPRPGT
The test is described as follows: SOS-catalyzed nucleotide exchange assay (HTRF, SOS1-mediated GTP loading of KRAS G12D). It counts as biochemical.

The mark [4] stands for this setting: 8 concentrations from 3 µM, three replicates; read-out: KRAS G12C::SOS1 PPI.
Setting [5] is: 3D spheroids, 0.002-10 µM, 5 days.
Where [6] appears, read: GST-KRAS G12D, HIS-SOS1cat, compound 128 pM to 10 µM; read-out: SOS-catalyzed nucleotide exchange assay.

Molecules are shown by their SMILES. Where two headings read alike, the source gives them in different places.

`Cc1ncc(-n2nc(C(=O)N[C@H](C)c3cccc(C(F)(F)CO)c3F)ccc2=O)cc1-c1cnnn1C` [Example 1-29]: the results for the IC50 in test [1] (setting [4]), in test [2] (setting [5]) and in test [3] (setting [6]) were below 50 nM, below 1000 nM and 50 to 150 nM, respectively.

As for `C[C@@H](NC(=O)c1ccc(=O)n(-c2cnnc(-c3cnnn3C)c2)n1)c1cccc(C(F)(F)CO)c1F` [Example 1-37, N-{(1R)-1-[3-(1,1-difluoro-2-hydroxyethyl)-2-fluoro-phenyl]ethyl}-6'-(1-methyl-1H-1,2,3-triazol-5-yl)-6-oxo-6H-[1,4'-bipyridazine]-1,6-dihydro-3-carboxamide], the IC50 in test [1] (setting [4]) was 50 to 150 nM; in test [2] (setting [5]) it was above 3000 nM; in test [3] (setting [6]), 50 to 150 nM.

`Cc1cc(C(=O)N[C@H](C)c2cccc(C(F)(F)CO)c2F)nn(-c2cncc(-c3cnnn3C(C)C)c2)c1=O` [Example 1-39, N-{(R)-1-[3-(1,1-difluoro-2-hydroxyethyl)-2-fluorophenyl]ethyl}-1-[5-(1-isopropyl-1H-1,2,3-triazol-5-yl)-3-pyridyl]-5-methyl-6-oxo-1,6-dihydropyridazine-3-carboxamide]: the IC50 was below 50 nM in test [1] (setting [4]), below 1000 nM in test [2] (setting [5]) and below 50 nM in test [3] (setting [6]).

For `Cc1cc(C(=O)N[C@H](C)c2cccc(C(F)(F)CO)c2F)nn(-c2cncc(-c3cnnn3C3CC3)c2)c1=O` [Example 1-40, N-{(R)-1-[3-(1,1-difluoro-2-hydroxyethyl)-2-fluorophenyl]ethyl}-1-[5-(1-cyclopropyl-1H-1,2,3-triazol-5-yl)-3-pyridyl]-5-methyl-6-oxo-1,6-dihydropyridazine-3-carboxamide], the IC50 is below 50 nM in test [1] (setting [4]), below 1000 nM in test [2] (setting [5]) and below 50 nM in test [3] (setting [6]).

On to `CCc1cc(C(=O)N[C@H](C)c2cccc(C(F)(F)CO)c2F)nn(-c2cncc(-c3cnnn3C3CC3)c2)c1=O` [Example 1-42, N-{(R)-1-[3-(1,1-difluoro-2-hydroxyethyl)-2-fluorophenyl]ethyl}-1-[5-(1-cyclopropyl-1H-1,2,3-triazol-5-yl)-3-pyridyl]-5-ethyl-6-oxo-1,6-dihydropyridazine-3-carboxamide], for which the results for the IC50 in test [1] (setting [4]), in test [2] (setting [5]) and in test [3] (setting [6]) were below 50 nM, below 1000 nM and below 50 nM, respectively.

Turning to `C[C@@H](NC(=O)c1ccc(=O)n(-c2cnc(N3CCOCC3)c(-c3cnnn3C)c2)n1)c1cccc(C(F)(F)F)c1F` [Example 1-46, N-{(R)-1-[2-fluoro-3-(trifluoromethyl)phenyl]ethyl}-1-[5-(1-methyl-1H-1,2,3-triazol-5-yl)-6-morpholino-3-pyridyl]-6-oxo-1,6-dihydropyridazine-3-carboxamide], the IC50 in test [1] (read-out: KRAS G12C::SOS1 PPI; 8 concentrations from 3 µM, three replicates) was 50 to 150 nM; in test [2], below 1000 nM; in test [3] (read-out: SOS-catalyzed nucleotide exchange assay; GST-KRAS G12D, HIS-SOS1cat, compound 128 pM to 10 µM), 50 to 150 nM.

For `C[C@@H](NC(=O)c1ccc(=O)n(-c2cncc(-c3cnnn3C3CC3)c2)n1)c1cccc(C(F)(F)F)c1F` [Example 1-50, N-[(1R)-1-[2-fluoro-3-(trifluoromethyl)phenyl]ethyl]-1-[5-(1-cyclopropyl-1H-1,2,3-triazol-5-yl)-3-pyridyl]-6-oxo-pyridazine-3-carboxamide], the figures for the IC50 in test [1] (setting [4]), in test [2] (setting [5]) and in test [3] (setting [6]) were below 50 nM, below 1000 nM and below 50 nM, respectively.

Take `CC(C)n1nncc1-c1cncc(-n2nc(C(=O)N[C@H](C)c3cccc(C(F)(F)CO)c3F)ccc2=O)c1` [Example 1-52, N-[(1R)-1-[3-(1,1-difluoro-2-hydroxy-ethyl)-2-fluoro-phenyl]ethyl]-1-[5-(1-isopropyl-1H-1,2,3-triazol-5-yl)-3-pyridyl]-6-oxo-pyridazine-3-carboxamide]: the results for the IC50 in test [1] (setting [4]), in test [2] (setting [5]) and in test [3] (setting [6]) were 50 to 150 nM, below 1000 nM and below 50 nM, respectively.

`C[C@@H](NC(=O)c1ccc(=O)n(-c2cncc(-c3cnnn3C3CC3)c2)n1)c1cccc(C(F)(F)CO)c1F` [Example 1-53, N-[(1R)-1-[3-(1,1-difluoro-2-hydroxy-ethyl)-2-fluoro-phenyl]ethyl]-1-[5-(1-cyclopropyl-1H-1,2,3-triazol-5-yl)-3-pyridyl]-6-oxo-pyridazine-3-carboxamide]: the IC50 in test [1] (setting [4]) is below 50 nM; in test [2] (setting [5]), below 1000 nM; in test [3] (setting [6]) it was below 50 nM.

Turning to `C[C@@H](NC(=O)c1ccc(=O)n(-c2cncc(-c3cnnn3C3CCC3)c2)n1)c1cccc(C(F)(F)F)c1F` [Example 1-54, N-[(1R)-1-[2-fluoro-3-(trifluoromethyl)phenyl]ethyl]-1-[5-(1-cyclobutyl-1H-1,2,3-triazol-5-yl)-3-pyridyl]-6-oxo-pyridazine-3-carboxamide], the results for the IC50 in test [1] (setting [4]), in test [2] (setting [5]) and in test [3] (setting [6]) were 50 to 150 nM, below 1000 nM and below 50 nM, respectively.

In the case of `[2H]C([2H])([2H])n1nncc1-c1cncc(-n2nc(C(=O)N[C@H](C)c3cc(N)cc(C(F)(F)F)c3)ccc2=O)c1` [Example 1-58], the IC50 was below 50 nM in test [1] (setting [4]), below 1000 nM in test [2] (setting [5]) and below 50 nM in test [3] (setting [6]).

As for `C[C@@H](NC(=O)c1cc(CO)c(=O)n(-c2cncc(-c3cnnn3C)c2)n1)c1cccc(C(F)(F)F)c1F` [Example 1-61, N-{(R)-1-[2-fluoro-3-(trifluoromethyl)phenyl]ethyl}-5-(hydroxymethyl)-1-[5-(1-methyl-1H-1,2,3-triazol-5-yl)-3-pyridyl]-6-oxo-1,6-dihydropyridazine-3-carboxamide], the values for the IC50 in test [1] (setting [4]), in test [2] (setting [5]) and in test [3] (setting [6]) were below 50 nM, below 1000 nM and 50 to 150 nM, respectively.

Regarding `CC(=O)c1cc(C(=O)N[C@H](C)c2cccc(C(F)(F)F)c2F)nn(-c2cncc(-c3cnnn3C)c2)c1=O` [Example 1-62, N-{(R)-1-[2-fluoro-3-(trifluoromethyl)phenyl]ethyl}-5-acetyl-1-[5-(1-methyl-1H-1,2,3-triazol-5-yl)-3-pyridyl]-6-oxo-1,6-dihydropyridazine-3-carboxamide], the IC50 in test [1] (setting [4]) was below 50 nM; in test [2] (setting [5]), below 1000 nM; in test [3] (setting [6]) it was 50 to 150 nM.

For `C[C@@H](NC(=O)c1cc(-c2ccccc2)c(=O)n(-c2cncc(-c3cnnn3C)c2)n1)c1cccc(C(F)(F)F)c1F` [Example 1-63, N-{(R)-1-[2-fluoro-3-(trifluoromethyl)phenyl]ethyl}-1-[5-(1-methyl-1H-1,2,3-triazol-5-yl)-3-pyridyl]-6-oxo-5-phenyl-1,6-dihydropyridazine-3-carboxamide], the figures for the IC50 in test [1] (setting [4]), in test [2] (setting [5]) and in test [3] (setting [6]) were 50 to 150 nM, below 1000 nM and 50 to 150 nM, respectively.

For the origin of these results see patent EP4667464A1 (Cyrus Therapeutics Inc., priority 2023, dated 2024).
